Results: patent publication US9877999B2, “Methods for treating metastatic stage prostate cancer” (Ferring International SA, priority 2008, dated 2018)
“And” between values parts separate entries of the source, which are not always exact repeats. Identical values can stand only once.

Assays:
Assay type in all cases: in vivo, human
[1] = test system: serum alkaline phosphatase (S-ALP); test: S-ALP analysis in prostate cancer patients (clinical study CS21); conditions: Leuprolide 7.5 mg
Description: Patients with histologically confirmed adenocarcinoma of the prostate (all stages), for whom androgen deprivation therapy was indicated were recruited. Baseline characteristics were well balanced between groups. Approximately half of patients had locally advanced (29.2%) or metastatic (20.5%) disease at baseline. […] Patients receiving leuprolide could also receive bicalutamide for clinical flare protection. The S-ALP levels were measured in each patient at various time points, by taking a blood sample and analyzing for S-ALP. S-ALP levels were measured using a standardized colorimetric assay based on the p-nitrophenyl phosphate AMP buffer method. The normal range for S-ALP is 44-147 IU/L. The S-ALP values in non-metastatic patients serve as controls. An ANOVA analysis with treatment and day as factors and baseline value as covariate was used to determine between treatment differences at Day 364. A repeated measures analysis (incorporating all time points from Day 112) with treatment and day as factors and baseline value as covariate was used to assess between treatment differences from Day 112 to Day 364.

[2] = test system: testosterone; conditions: leuprolide 7.5 mg group
Description: The study also evaluated the pharmacokinetics of the degarelix dosing regimens investigated. Finally, the study examined the effects of using the degarelix treatment on patients suffering from different stages of cancer. […] The primary efficacy endpoint was the probability of testosterone levels remaining ≦0.5 ng/mL from day 28 through day 364. […] The primary efficacy endpoint was analyzed for both the ITT and PP analysis sets, with the ITT analysis set considered primary. The primary efficacy endpoint was analyzed using the Kaplan Meier method. For each of the three treatment groups, testosterone response rates with 95% confidence interval (CI) were calculated by log-log transformation of survivor function. […] All secondary efficacy endpoints were analyzed for both the ITT and PP analysis sets, unless otherwise stated. […] The percentage change in PSA from baseline to day 28 endpoint was analyzed by a Wilcoxon test.

[3] = test system: luteinizing hormone (LH); test: Serum LH levels over time (clinical study CS21); conditions: leuprolide 7.5 mg group
Description: (§1) The study also investigated whether degarelix is safe and effective with respect to achieving and maintaining testosterone suppression to castrate levels, evaluated as the proportion of patients with testosterone suppression ≦0.5 ng/mL during 12 months of treatment. […] The study also evaluated the pharmacokinetics of the degarelix dosing regimens investigated. Finally, the study examined the effects of using the degarelix treatment on patients suffering from different stages of cancer.
(§2) Patients in two treatment groups received a degarelix starting dose of 240 mg at a concentration of 40 mg/mL (240@40) on day 0 administered as two equivalent subcutaneous (s.c.) injections of 120 mg each. Thereafter, patients received 12 additional single s.c. degarelix doses of either 80 mg at a concentration of 20 mg/mL (80@20: degarelix 240/80 mg group) or 160 mg at a concentration of 40 mg/mL (160@40: degarelix 240/160 mg group) administered s.c. every 28 days.
(§3) The secondary efficacy endpoints were: the proportion of patients with testosterone surge during the first 2 weeks of treatment; the proportion of patients with testosterone level ≦0.5 ng/mL at day 3; the percentage change in PSA from baseline to day 28; the probability of testosterone ≦0.5 ng/mL from day 56 through day 364; the levels of serum testosterone, LH, FSH and PSA over time through the study; the time to PSA failure, defined as two consecutive increases of 50%, and at least 5 ng/mL as compared to nadir; degarelix concentration over the first month and trough levels at day 308 and 336; the frequency and size of testosterone increases at day 255 and/or 259 compared to the testosterone level at day 252; the quality of life on days 0, 28, 84, 168 and end of study visit; the frequency and intensity of hot flushes experienced (scored daily from study start until end of study visit). In addition, two further secondary endpoints were added: the probability of sufficient testosterone response from day 28 through day 364 (a patient was considered to have insufficient testosterone response if they had one testosterone value >1.0 ng/mL or two consecutive testosterone values >0.5 ng/mL at day 28 onwards); and the percentage change in PSA from baseline to day 14.

[4] = test system: prostate-specific antigen (PSA); test: PSA failure in prostate cancer patients (clinical study CS21); conditions: for proportion of PSA failures: leuprolide 7.5 mg
Description: For this analysis, PSA failure (a secondary endpoint) was defined as two consecutive increases in PSA of 50% and 5 ng/mL compared with nadir. The time to PSA failure was defined as the number of days from first dosing to where an increase in serum PSA of 50% from nadir and 5 ng/mL, measured on two consecutive occasions at least two weeks apart, was noted. The second occasion was the time point of meeting the criterion. PSA failure rates were also analyzed by disease stage and baseline PSA level.
as §3
The secondary endpoints, probability of testosterone ≦0.5 ng/mL from day 56 through day 364, time to PSA failure, and probability of sufficient testosterone response from day 28 through day 364 were analyzed by the Kaplan-Meier method.

[5] = test system: follicle stimulating hormone (FSH); test: Serum FSH levels over time (clinical study CS21); conditions: leuprolide 7.5 mg group
Description: as §1, §2, §3

[6] = test system: prostate-specific antigen (PSA); test: Serum PSA level change in prostate cancer patients (clinical study CS21); conditions: leuprolide 7.5 mg patients who did not receive anti-androgen therapy
Description: All secondary efficacy endpoints were analyzed for both the ITT and PP analysis sets, unless otherwise stated. The proportion of patients with testosterone surge during the first 2 weeks of treatment was analyzed using Fisher's exact test. […] The percentage change in PSA from baseline to day 28 endpoint was analyzed by a Wilcoxon test.

CCNC(=O)[C@@H]1CCCN1C(=O)[C@H](CCCNC(=N)N)NC(=O)[C@H](CC(C)C)NC(=O)[C@@H](CC(C)C)NC(=O)[C@H](Cc1ccc(O)cc1)NC(=O)[C@H](CO)NC(=O)[C@H](Cc1c[nH]c2ccccc12)NC(=O)[C@H](Cc1c[nH]cn1)NC(=O)[C@@H]1CCC(=O)N1 [leuprolide, reference compound]
S-ALP mean change from baseline ([1]; Localized, Day 112): +5 IU/L
S-ALP mean change from baseline ([1]; Localized, Day 224): +7 IU/L
S-ALP mean change from baseline ([1]; Localized, Day 364): +9 IU/L
S-ALP mean change from baseline ([1]; Locally advanced, Day 112): −1 IU/L
S-ALP mean change from baseline ([1]; Locally advanced, Day 224): −1 IU/L
S-ALP mean change from baseline ([1]; Locally advanced, Day 364): +6 IU/L
S-ALP mean change from baseline ([1]; Metastatic (Hb < 130 g/L), Day 112): −30 IU/L
S-ALP mean change from baseline ([1]; Metastatic (Hb < 130 g/L), Day 224): −70 IU/L
S-ALP mean change from baseline ([1]; Metastatic (Hb < 130 g/L), Day 364): −10 IU/L
S-ALP mean change from baseline ([1]; Metastatic, Day 112): −20 IU/L
S-ALP mean change from baseline ([1]; Metastatic, Day 224): −50 IU/L
S-ALP mean change from baseline ([1]; Metastatic, Day 364): 0 IU/L
S-ALP mean change from baseline ([1]; baseline PSA 10-20 ng/mL, Day 112): +5 IU/L
S-ALP mean change from baseline ([1]; baseline PSA 10-20 ng/mL, Day 224): +8 IU/L
S-ALP mean change from baseline ([1]; baseline PSA 10-20 ng/mL, Day 364): +8 IU/L
S-ALP mean change from baseline ([1]; baseline PSA 20-50 ng/mL, Day 112): +5 IU/L
S-ALP mean change from baseline ([1]; baseline PSA 20-50 ng/mL, Day 224): +8.5 IU/L
S-ALP mean change from baseline ([1]; baseline PSA 20-50 ng/mL, Day 364): +11 IU/L
S-ALP mean change from baseline ([1]; baseline PSA < 10 ng/mL, Day 112): +4.5 IU/L
S-ALP mean change from baseline ([1]; baseline PSA < 10 ng/mL, Day 224): +6 IU/L
S-ALP mean change from baseline ([1]; baseline PSA < 10 ng/mL, Day 364): +7.5 IU/L
S-ALP mean change from baseline ([1]; baseline PSA > 50 ng/mL, Day 112): −40 IU/L
S-ALP mean change from baseline ([1]; baseline PSA > 50 ng/mL, Day 224): −60 IU/L
S-ALP mean change from baseline ([1]; baseline PSA > 50 ng/mL, Day 364): +10 IU/L
Kaplan-Meier estimate of the probability of testosterone ≦0.5 ng/mL from day 28 to day 364 [2]: 96.4%
patients exhibiting testosterone suppression on day 3 [2]: no patients
overall proportion of patients with testosterone ≦0.5 ng/mL from day 28 to day 364 ([2]; observed cases analysis): 96.0%
median LH level ([3]; by day 56, remaining until day 364): 0.035 IU/L
increase of median LH from baseline ([3]; day 1): > 400%
median LH level, peak ([3]; day 1): 31.0 IU/L
probability of completing the study without experiencing PSA failure by day 364 ([4]; leuprolide 7.5 mg group): 85.9% and ~85.8%
proportion of PSA failures ([4]; patients with baseline PSA>50 ng/mL): 40.0%
proportion of PSA failures ([4]; patients with metastatic disease at baseline): 36.2%
FSH level ([5]; by day 14): 2.0 IU/L
FSH level, peak ([5]; day 1): 22.5 IU/L
increase of FSH from baseline ([5]; day 1): 146%
Median FSH plateau ([5]; from around day 56 until day 364): approximately 4.40 IU/L
PSA median percentage reduction from baseline ([6]; day 14): 15.3%
PSA median percentage reduction from baseline ([6]; day 28): 61.7%
